Data published in article PMC9014410, “Discovery of V-0219: A Small-Molecule Positive Allosteric Modulator of the Glucagon-Like Peptide-1 Receptor toward Oral Treatment for “Diabesity”” (Journal of Medicinal Chemistry, 2022).
“And” between values parts separate entries of the source, which are not always exact repeats. Equal entries are not always repeated. “Also recorded” adds a separate entry of the source.

Legend:
CYP2C9 = CYP2C9 (Homo sapiens, UniProt P11712); assay: P450 cytochrome inhibition, CYP2C9; type: in vitro ADME
Experimental: Inhibition of P450 cytochrome isoforms. […] Effect on hERG channel. […] Patch clamp experiments were carried out using […]® robot. […] After S27

panel of 54 GPCRs = assay: Selectivity panel of binding assays (Eurofins Cerep); details: 10 μM; all 54 receptors
Source text: (§1) 3. Binding to off-target receptors
(§2) Eurofins Cerep (France). Significant binding affinity was defined as a displacement of target
selective radioligand greater than 50% using a concentration of 10 µM of 9. […]

male Wistar rats [1] = assay: Anxiety-like behavior in the elevated plus-maze; type: in vivo, rat; details: 9 1 and 0.5 mg/kg ip
Experimental: Animals naïve to the maze were manipulated for 7 days before testing. The day of the experiment, 30 min after ip injection of 9, animals were placed in the center of the maze, facing an open arm. The number of entries and the % of time spent in the exposed arms of the maze were measured. Test length was 5 min and animals were not retested.

wild-type C57BL/6N mice = assay: Glucose tolerance test in wild-type mice; type: in vivo, mouse
Experimental: (§3) Glucose tolerance test was carried out both in Wistar and Zucker (fa/fa) obese male rats and in wild-type and GLP-1R KO mice, by injecting an ip glucose load of 2 g/kg body weight (diluted in saline) or by oral administration of a glucose solution (2 g/kg in a volume of water of […] body weight). Animals were food-deprived overnight (12 h fasting) before testing. Thirty minutes before glucose load, animals received by ip administration the compound being tested dissolved in saline/DMSO (0.2%) as vehicle. Tail blood samples were collected before (0 min) and 5, 10, 15, 30, 45, 60, and 120 min after glucose administration. Glucose was determined using a commercial glucometer (Accu-check, Roche Diagnostic).

[2] = Microsomal stability test as summarised in the text (species not given in the sentence); type: in vitro ADME; details: rat, dog, human, liver microsomes; text summary of Table S6; read-out: half-life time in a microsomal stability test
male Wistar rats [3] = assay: Feeding inhibition in 12-h fasted male Wistar rats (icv)
[4] = In vivo pharmacokinetic study in male Sprague Dawley rats; details: rat, plasma
hERG channel = hERG channel (Homo sapiens, UniProt Q12809); assay: hERG channel inhibition, whole cell patch clamp in hERG-transfected CHO cells
Experimental: (tail) current was investigated using Chinese Hamster Ovary (CHO) cells stably transfected with
hERG, employing the whole cell patch clamp technique.
hERG inhibition. Patch clamp experiments were carried out using FlyscreenP® robot. CHO cells
choline chloride, 5 mM KCl, 1 mM MgCl2(H2O)6, 10 mM HEPES, 10 mM glucose, pH 7.4) to give
cell density of ~ 0.5 million per mL, and transferred to the cell mixer on Flyscreen® 8500 robot
which keeps cell suspension in a ready-for-use condition.
KMeSO3, 5 mM MgCl2(H2O)6, 10 mM HEPES-KOH, 5 mM EGTA, 5 mM K2ATP at pH 7.2. Ionic
currents from hERG transfected cells were measured in the whole cell configuration. Once the whole
the hERG current. An EC NaCl solution (120 mM NaCl, 5 mM KCl, 1.8 mM CaCl2, 10 mM
HEPES, 10 mM glucose, pH 7.4) was added for control readings, which were measured for ~ 360 s
followed by compound addition.
continuously for ~ 600 seconds. For analysis purposes, the current of interest (IKr) was considered.
Results were expressed as absolute values and percent change from control. Percent inhibition was
calculated by comparing the IKr current before and after addition of test compound once a steady-
state current had been attained.

A3 (h) = biological target: T1, A3 (h) (Homo sapiens, UniProt P0DMS8); assay: biochemical; set-up: radioligand displacement binding panel (Eurofins Cerep), % inhibition of control specific binding; details: agonist radioligand; read-out: % Inhibition of Control Specific Binding
T1 construct: gene ADORA3
Source text: as §1, §2
(§4) selective radioligand greater than 50% using a concentration of 10 µM of 9.

CCR1 (h) = CCR1 (h) (Homo sapiens, UniProt P32246); assay: biochemical; set-up: radioligand displacement binding panel (Eurofins Cerep), % inhibition of control specific binding; details: agonist radioligand; read-out: % Inhibition of Control Specific Binding
Source text: as §1, §2, §4

H1 (h) = biological target: T2, H1 (h) (Homo sapiens, UniProt P35367); assay: biochemical; set-up: radioligand displacement binding panel (Eurofins Cerep), % inhibition of control specific binding; details: antagonist radioligand; read-out: % Inhibition of Control Specific Binding
T2 construct: gene HRH1
Source text: as §1, §2, §4

A2A (h) = biological target: T3, A2A (h) (Homo sapiens, UniProt P29274); assay: biochemical; set-up: radioligand displacement binding panel (Eurofins Cerep), % inhibition of control specific binding; details: agonist radioligand; read-out: % Inhibition of Control Specific Binding
T3 construct: gene ADORA2A
Source text: as §1, §2, §4

GAL2 (h) = biological target: T4, GAL2 (h) (Homo sapiens, UniProt O43603); assay: biochemical; set-up: radioligand displacement binding panel (Eurofins Cerep), % inhibition of control specific binding; details: agonist radioligand; read-out: % Inhibition of Control Specific Binding
T4 construct: gene GALR2
Source text: as §1, §2, §4

NK2 (h) = biological target: T5, NK2 (h) (Homo sapiens, UniProt P21452); assay: biochemical; set-up: radioligand displacement binding panel (Eurofins Cerep), % inhibition of control specific binding; details: agonist radioligand; read-out: % Inhibition of Control Specific Binding
T5 construct: gene TACR2
Source text: as §1, §2, §4

A1 (h) = biological target: T6, A1 (h) (Homo sapiens, UniProt P30542); assay: biochemical; set-up: radioligand displacement binding panel (Eurofins Cerep), % inhibition of control specific binding; details: antagonist radioligand; read-out: % Inhibition of Control Specific Binding
T6 construct: gene ADORA1
Source text: as §1, §2, §4

B2 (h) = biological target: T7, B2 (h) (Homo sapiens, UniProt P30411); assay: biochemical; set-up: radioligand displacement binding panel (Eurofins Cerep), % inhibition of control specific binding; details: agonist radioligand; read-out: % Inhibition of Control Specific Binding
T7 construct: gene BDKRB2
Source text: as §1, §2, §4

MT1 (ML1A) (h) = biological target: T8, MT1 (ML1A) (h) (Homo sapiens, UniProt P48039); assay: biochemical; set-up: radioligand displacement binding panel (Eurofins Cerep), % inhibition of control specific binding; details: agonist radioligand; read-out: % Inhibition of Control Specific Binding
T8 construct: gene MTNR1A
Source text: as §1, §2, §4

NK3 (h) = biological target: T9, NK3 (h) (Homo sapiens, UniProt P29371); assay: biochemical; set-up: radioligand displacement binding panel (Eurofins Cerep), % inhibition of control specific binding; details: antagonist radioligand; read-out: % Inhibition of Control Specific Binding
T9 construct: gene TACR3
Source text: as §1, §2, §4

β1 (h) = biological target: T10, β1 (h) (Homo sapiens, UniProt P08588); assay: biochemical; set-up: radioligand displacement binding panel (Eurofins Cerep), % inhibition of control specific binding; details: agonist radioligand; read-out: % Inhibition of Control Specific Binding
T10 construct: gene ADRB1
Source text: as §1, §2, §4

H2 (h) = biological target: T11, H2 (h) (Homo sapiens, UniProt P25021); assay: biochemical; set-up: radioligand displacement binding panel (Eurofins Cerep), % inhibition of control specific binding; details: antagonist radioligand; read-out: % Inhibition of Control Specific Binding
T11 construct: gene HRH2
Source text: as §1, §2, §4

hGLP-1R = hGLP-1R (Homo sapiens, UniProt P43220); assay: Calcium mobilization / calcium fluxes in HEK cells stably expressing hGLP-1R (ExviTech flow cytometry); details: 10 μM compound, then EC25 of GLP-1
[5] = tested on: Zucker (fa/fa) obese male rats; assay: Glucose tolerance test in diabetic fatty Zucker rats; type: in vivo, rat; details: (S)-9 0.4 mg/kg intragastrically; ip 2 g/kg glucose
GLP-1R KO mice = assay: Glucose tolerance test in GLP-1R KO mice; type: in vivo, mouse; details: (S)-9; 2 g/kg glucose
Experimental: as §3

EndoC-βH1 cells = assay: Insulin secretion by human pancreatic EndoC-βH1 cells; type: cell-based; details: high glucose concentration
Experimental: Both cell lines were cultured in RPMI 1640 medium supplemented with 10% fetal calf serum as described. Cell monolayers were incubated at 37 °C in a 7.5% CO2 atmosphere. For insulin secretion studies, cells were detached, washed once with glucose-free medium and placed in 48 multiwell plates (100,000 cells per well) and kept in glucose-free medium for 1.5 h prior to incubation with drugs. The incubation was done using two types of culture media, defined as low glucose (0.5–3 mM) and high glucose (15 mM). […] Incubation with compounds lasted 30 min, and then the media was collected, centrifuged at 4 °C for 2 min until assayed for insulin using commercial ELISA kit.

INS-1 β-cells = assay: Insulin secretion by rat INS-1 / INS-1E insulinoma cells; type: cell-based; details: INS-1E cells, 0.5 mM glucose, single representative experiment
Experimental: The incubation was done using two types of culture media, defined as low glucose (0.5–3 mM) and high glucose (15 mM). […] Incubation with compounds lasted 30 min, and then the media was collected, centrifuged at 4 °C for 2 min until assayed for insulin using commercial ELISA kit.

Wistar rats = assay: Glucose tolerance test in Wistar rats; type: in vivo, rat; details: (S)-9 0.04 and 0.2 mg/kg ip; ip 2 g/kg glucose
Experimental: as §3

Chain of hERG channel (Q12809 whole entry): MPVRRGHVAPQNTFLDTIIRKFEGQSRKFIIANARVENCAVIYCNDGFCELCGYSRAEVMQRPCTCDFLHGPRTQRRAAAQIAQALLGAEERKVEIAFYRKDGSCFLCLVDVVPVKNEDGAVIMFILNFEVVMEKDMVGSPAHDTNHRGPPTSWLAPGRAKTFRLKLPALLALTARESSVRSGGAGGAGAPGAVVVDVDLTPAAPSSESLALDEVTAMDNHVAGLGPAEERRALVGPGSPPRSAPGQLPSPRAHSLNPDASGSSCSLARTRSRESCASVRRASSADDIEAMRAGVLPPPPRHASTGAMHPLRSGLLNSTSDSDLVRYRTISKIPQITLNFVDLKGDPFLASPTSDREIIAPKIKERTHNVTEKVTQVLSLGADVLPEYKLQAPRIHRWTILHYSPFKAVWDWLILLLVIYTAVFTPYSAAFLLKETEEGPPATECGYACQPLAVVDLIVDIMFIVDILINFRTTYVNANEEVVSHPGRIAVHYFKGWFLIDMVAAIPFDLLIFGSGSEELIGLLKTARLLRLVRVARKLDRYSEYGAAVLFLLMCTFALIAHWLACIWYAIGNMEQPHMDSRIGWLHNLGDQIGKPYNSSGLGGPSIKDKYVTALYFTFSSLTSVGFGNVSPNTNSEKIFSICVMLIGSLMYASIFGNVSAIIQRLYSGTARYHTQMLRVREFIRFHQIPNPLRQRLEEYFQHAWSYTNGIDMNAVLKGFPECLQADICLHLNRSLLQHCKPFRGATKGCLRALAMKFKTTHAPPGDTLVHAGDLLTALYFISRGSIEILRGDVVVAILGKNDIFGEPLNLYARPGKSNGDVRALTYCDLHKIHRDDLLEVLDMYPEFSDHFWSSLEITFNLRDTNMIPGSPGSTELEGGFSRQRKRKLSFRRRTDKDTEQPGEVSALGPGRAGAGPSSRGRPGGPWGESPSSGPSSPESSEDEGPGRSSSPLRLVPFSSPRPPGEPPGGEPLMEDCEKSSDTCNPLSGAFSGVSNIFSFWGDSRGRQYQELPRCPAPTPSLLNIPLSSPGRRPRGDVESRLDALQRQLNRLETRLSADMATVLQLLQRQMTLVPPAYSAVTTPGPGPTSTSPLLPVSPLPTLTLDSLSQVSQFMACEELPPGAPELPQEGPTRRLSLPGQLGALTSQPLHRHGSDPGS
T8 sequence (P48039 whole entry): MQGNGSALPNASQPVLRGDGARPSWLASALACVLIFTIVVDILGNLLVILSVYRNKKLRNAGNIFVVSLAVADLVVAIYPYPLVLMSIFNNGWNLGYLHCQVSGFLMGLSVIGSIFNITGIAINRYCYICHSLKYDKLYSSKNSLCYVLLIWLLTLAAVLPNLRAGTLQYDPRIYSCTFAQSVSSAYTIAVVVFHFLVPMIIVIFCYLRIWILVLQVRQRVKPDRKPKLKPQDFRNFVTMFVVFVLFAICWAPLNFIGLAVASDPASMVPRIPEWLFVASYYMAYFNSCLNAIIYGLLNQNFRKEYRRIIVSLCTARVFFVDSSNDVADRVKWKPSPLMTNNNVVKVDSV
Chain of CYP2C9 (P11712 whole entry, canonical isoform): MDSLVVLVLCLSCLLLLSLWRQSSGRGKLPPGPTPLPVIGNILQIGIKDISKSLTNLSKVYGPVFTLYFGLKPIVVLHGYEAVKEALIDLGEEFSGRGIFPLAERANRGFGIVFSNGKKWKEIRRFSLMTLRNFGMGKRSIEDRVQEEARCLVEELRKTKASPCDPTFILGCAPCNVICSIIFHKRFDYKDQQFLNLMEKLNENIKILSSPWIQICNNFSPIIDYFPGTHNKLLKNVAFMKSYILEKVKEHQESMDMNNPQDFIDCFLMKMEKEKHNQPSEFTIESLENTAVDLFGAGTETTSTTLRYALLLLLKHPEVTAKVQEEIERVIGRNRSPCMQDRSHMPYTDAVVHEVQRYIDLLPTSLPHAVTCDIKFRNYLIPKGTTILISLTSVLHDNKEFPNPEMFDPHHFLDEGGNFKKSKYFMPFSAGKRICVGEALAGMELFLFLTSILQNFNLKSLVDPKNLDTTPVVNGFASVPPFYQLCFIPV
T9 sequence (P29371 whole entry): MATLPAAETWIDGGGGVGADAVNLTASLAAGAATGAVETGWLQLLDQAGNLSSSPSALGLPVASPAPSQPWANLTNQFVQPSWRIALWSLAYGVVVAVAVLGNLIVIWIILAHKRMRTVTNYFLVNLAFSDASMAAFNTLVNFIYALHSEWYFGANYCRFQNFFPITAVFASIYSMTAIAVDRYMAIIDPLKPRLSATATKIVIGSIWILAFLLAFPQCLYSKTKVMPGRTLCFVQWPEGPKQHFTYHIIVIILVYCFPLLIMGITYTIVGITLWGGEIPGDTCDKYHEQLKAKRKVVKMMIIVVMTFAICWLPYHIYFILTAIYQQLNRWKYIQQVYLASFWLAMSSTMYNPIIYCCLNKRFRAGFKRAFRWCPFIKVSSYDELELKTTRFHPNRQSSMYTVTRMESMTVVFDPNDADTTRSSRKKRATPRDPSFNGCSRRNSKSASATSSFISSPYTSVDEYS
T6 sequence (P30542 whole entry): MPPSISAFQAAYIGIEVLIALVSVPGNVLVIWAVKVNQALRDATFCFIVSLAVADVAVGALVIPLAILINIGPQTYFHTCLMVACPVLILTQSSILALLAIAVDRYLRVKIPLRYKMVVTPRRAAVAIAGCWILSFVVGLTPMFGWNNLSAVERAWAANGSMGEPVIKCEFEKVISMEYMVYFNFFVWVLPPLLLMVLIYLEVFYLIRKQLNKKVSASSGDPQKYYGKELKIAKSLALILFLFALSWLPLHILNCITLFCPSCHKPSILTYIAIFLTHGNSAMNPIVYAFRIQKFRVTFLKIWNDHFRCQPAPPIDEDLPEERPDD
T5 sequence (P21452 whole entry): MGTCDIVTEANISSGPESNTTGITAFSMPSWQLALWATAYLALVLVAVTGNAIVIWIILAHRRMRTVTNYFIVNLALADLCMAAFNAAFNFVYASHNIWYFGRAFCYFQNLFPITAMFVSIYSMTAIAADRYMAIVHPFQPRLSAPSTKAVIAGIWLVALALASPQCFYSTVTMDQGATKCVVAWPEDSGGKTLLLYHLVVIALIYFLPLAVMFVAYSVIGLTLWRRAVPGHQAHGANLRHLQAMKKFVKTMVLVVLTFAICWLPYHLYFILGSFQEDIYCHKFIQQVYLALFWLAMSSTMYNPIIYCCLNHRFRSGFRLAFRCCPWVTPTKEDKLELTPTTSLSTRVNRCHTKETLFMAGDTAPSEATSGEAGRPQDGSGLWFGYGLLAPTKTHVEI
T10 sequence (P08588 whole entry): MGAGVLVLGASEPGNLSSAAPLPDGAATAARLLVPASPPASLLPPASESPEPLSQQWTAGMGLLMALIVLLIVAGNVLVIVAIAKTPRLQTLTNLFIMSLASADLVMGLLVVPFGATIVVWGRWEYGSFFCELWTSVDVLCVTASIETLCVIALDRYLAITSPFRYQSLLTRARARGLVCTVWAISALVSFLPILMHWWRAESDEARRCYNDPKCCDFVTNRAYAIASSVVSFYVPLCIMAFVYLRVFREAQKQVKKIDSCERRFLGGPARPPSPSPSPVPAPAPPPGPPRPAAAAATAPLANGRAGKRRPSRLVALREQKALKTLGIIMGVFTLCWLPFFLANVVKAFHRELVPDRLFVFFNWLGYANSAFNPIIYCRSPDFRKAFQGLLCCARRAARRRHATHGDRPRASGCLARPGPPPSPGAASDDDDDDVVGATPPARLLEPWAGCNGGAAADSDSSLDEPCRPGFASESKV
T3 sequence (P29274 whole entry): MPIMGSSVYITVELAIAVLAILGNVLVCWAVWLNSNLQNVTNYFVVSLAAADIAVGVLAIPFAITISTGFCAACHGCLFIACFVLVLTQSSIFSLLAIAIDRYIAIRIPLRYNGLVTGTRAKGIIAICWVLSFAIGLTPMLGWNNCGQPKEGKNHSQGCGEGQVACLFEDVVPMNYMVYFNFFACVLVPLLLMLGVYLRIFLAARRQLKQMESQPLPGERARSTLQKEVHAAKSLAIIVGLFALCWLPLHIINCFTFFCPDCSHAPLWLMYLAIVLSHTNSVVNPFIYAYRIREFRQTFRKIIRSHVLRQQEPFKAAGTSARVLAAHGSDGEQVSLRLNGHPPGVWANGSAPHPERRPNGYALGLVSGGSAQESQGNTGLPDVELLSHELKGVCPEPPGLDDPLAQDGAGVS
T4 sequence (O43603 whole entry): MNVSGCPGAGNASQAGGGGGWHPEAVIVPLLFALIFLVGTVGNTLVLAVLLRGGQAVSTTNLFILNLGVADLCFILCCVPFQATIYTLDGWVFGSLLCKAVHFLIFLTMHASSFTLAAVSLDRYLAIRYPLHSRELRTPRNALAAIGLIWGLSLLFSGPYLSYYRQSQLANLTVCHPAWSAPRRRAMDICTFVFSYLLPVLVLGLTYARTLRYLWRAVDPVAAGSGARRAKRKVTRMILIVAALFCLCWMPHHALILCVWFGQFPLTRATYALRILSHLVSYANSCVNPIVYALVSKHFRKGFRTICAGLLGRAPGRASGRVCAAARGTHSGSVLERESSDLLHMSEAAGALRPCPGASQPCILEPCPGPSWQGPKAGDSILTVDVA
T1 sequence (P0DMS8 whole entry): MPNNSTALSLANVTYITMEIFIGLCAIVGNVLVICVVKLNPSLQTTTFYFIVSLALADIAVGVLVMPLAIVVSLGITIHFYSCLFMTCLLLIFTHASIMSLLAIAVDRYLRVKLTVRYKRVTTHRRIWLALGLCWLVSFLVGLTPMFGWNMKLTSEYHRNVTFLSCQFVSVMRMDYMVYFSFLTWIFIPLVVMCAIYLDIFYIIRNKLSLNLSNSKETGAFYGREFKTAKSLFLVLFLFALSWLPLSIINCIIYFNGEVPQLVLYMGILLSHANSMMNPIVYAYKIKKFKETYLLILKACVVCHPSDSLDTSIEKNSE

For FC(F)(F)c1ccc(-c2noc(CN3CCCC(CN4CCOCC4)C3)n2)cc1 (stereo not shown) [compound 9, 4-{[1-({3-[4-(Trifluoromethyl)phenyl]-1,2,4-oxadiazol-5-yl}methyl)piperidin-3-yl]methyl}morpholine], the IC50 (CYP2C9) was 80 µM, the “displacement of the specific binding” value (panel of 54 GPCRs) was “lower than 50%” and the “anxiety-like behavior in the elevated plus-maze” value (male Wistar rats [1]) was “does not induce anxiety-like behavior; also recorded: did not result in the emergence of anxiety-like behaviors nor hypolocomotion”. The “glucose handling after ip glucose load” value (wild-type C57BL/6N mice; 9 0.1 mg/kg ip, ip 2 g/kg glucose, 0.1 mg/kg) was “improved glucose handling”, the “glucose handling after oral glucose load” value (wild-type C57BL/6N mice; 9 0.1 or 1 mg/kg ip, oral 2 g/kg glucose) was “improved glucose handling” and the half-life at 1 µM [2] was greater than 30 min. For the same compound, the “potentiation of feeding inhibition induced by exendin-4 (in words)” value (male Wistar rats [3]; 9 1 μg/kg icv) was “potentiates; also recorded: potentiate the feeding inhibition; also recorded: enhancing satiety induced by the GLP-1R agonist exendin-4”, the AUC(0-inf) at 24 h ([4]; IV 2 mg/kg, mean ± SD, N = 4) was 311 ± 12.9 ng·h/mL and the AUC(0-t) at 24 h ([4]; IV 2 mg/kg, mean ± SD, N = 4) was 278 ± 20 ng·h/mL. It also gave a C0 ([4]; IV 2 mg/kg, mean ± SD, N = 4) of 492 ± 81.9 ng/mL, a clearance at 24 h ([4]; IV 2 mg/kg, mean ± SD, N = 4) of 107 ± 4.58 mL/min/kg and a half-life at 24 h ([4]; IV 2 mg/kg, mean ± SD, N = 4) of 195 ± 61.8 min. It also gave a Vd at 24 h ([4]; IV 2 mg/kg, mean ± SD, N = 4, read-out: Vss) of 18.1 ± 6.62 L/kg, a bioavailability ([4]; PO 10 mg/kg vs IV 2 mg/kg) of 39% and a bioavailability at 24 h ([4]; PO 10 mg/kg vs IV 2 mg/kg) of 38.9 ± 9.52%. For the same compound, the AUC(0-inf) at 24 h ([4]; PO 10 mg/kg, mean ± SD, N = 4) was 644 ± 267 ng·h/mL, the AUC(0-t) at 24 h ([4]; PO 10 mg/kg, mean ± SD, N = 4) was 540 ± 132 ng·h/mL and the Cmax at 24 h ([4]; PO 10 mg/kg, mean ± SD, N = 4) was 185 ± 14.5 ng/mL. It also gave a Tmax at 24 h ([4]; PO 10 mg/kg, mean ± SD, N = 4) of 49.8 ± 17.4 min, a half-life at 24 h ([4]; PO 10 mg/kg, mean ± SD, N = 4) of 172 ± 113 min and a Tmax ([4]; oral route, 10 mg/kg, read-out: time of maximal concentration post-ingestion (converted)) of 50 min. For the same compound, the IC50 (hERG channel) was 4.13 µM, the “hERG inhibition (in words)” value (hERG channel) was “weak inhibitor of the hERG channel at micromolar concentrations” and the “Inhibition (%), Mean” value (hERG channel; 1 µM) was 29.7%. The “Inhibition (%), single values” (hERG channel; 1 µM) was 27.0% and 32.3%, the “Inhibition (%), Mean” value (hERG channel; 10 µM) was 62.3% and the “Inhibition (%), single values” (hERG channel; 10 µM) was 52.1% and 72.5%. For the same compound, the “Inhibition (%), Mean” value (hERG channel; 30 µM) was 80.5%, the “Inhibition (%), single values” (hERG channel; 30 µM) was 78.0% and 83.0% and the inhibition at 10 µM (A3 (h)) was -20%. The inhibition at 10 µM (CCR1 (h)) was 4%, the inhibition at 10 µM (H1 (h)) was -4% and the inhibition at 10 µM (A2A (h)) was -3%. For the same compound, the inhibition at 10 µM (GAL2 (h)) was 0%, the inhibition at 10 µM (NK2 (h)) was 19% and the inhibition at 10 µM (A1 (h)) was 5%. For the same compound, the inhibition at 10 µM (B2 (h)) was 8%, the inhibition at 10 µM (MT1 (ML1A) (h)) was -3% and the inhibition at 10 µM (NK3 (h)) was -8%. It also gave an inhibition at 10 µM (β1 (h)) of 3% and an inhibition at 10 µM (H2 (h)) of -13%.

In the case of O=S(=O)(NC1CCN(Cc2nc(-c3ccc(C(F)(F)F)cc3)no2)CC1)c1ccccc1Cl [compound 1], the “result of ExviTech library screening” value (hGLP-1R) is reported as “putative modulator of the GLP-1R”.

With FC(F)(F)c1ccc(-c2noc(CN3CCC[C@@H](CN4CCOCC4)C3)n2)cc1 [(S)-9, (+)-4-{[(3S)-1-({3-[4-(Trifluoromethyl)phenyl]-1,2,4-oxadiazol-5-yl}methyl)piperidin-3-yl]methyl}morpholine] the “glucose handling after glucose load, oral dosing” value [5] was “orally active”, the “glucose handling after glucose load” value (wild-type C57BL/6N mice; (S)-9, 2 g/kg glucose, 12-h fasted) was “improvement” and the “glucose handling after glucose load” value (GLP-1R KO mice) was “devoid; also recorded: inactive”. For the same compound, the “duration of the feeding effect after injection” value (male Wistar rats [3]; (S)-9 5 μg/kg icv) was “up to 2 h”, the effect on feeding (male Wistar rats [3]; (S)-9 5 μg/kg icv) was “decreased feeding” and the “potentiation of insulin secretion stimulated by GLP-1 (in words)” value (EndoC-βH1 cells) was “similarly potentiate insulin secretion stimulated by GLP-1”. For the same compound, the “Insulin secreted” value (INS-1 β-cells; 0.1 nM test substance) was 29 ng/mL, the “Insulin secreted” value (INS-1 β-cells; 1 nM test substance) was 39 ng/mL and the “Insulin secreted” value (INS-1 β-cells; 10 nM test substance) was 37 ng/mL. The “glucose handling after glucose load” value (Wistar rats) was “clearly improved glucose handling”.
